Key:
mouse Oatp1a1 = biological target: T1, mouse Oatp1a1 (Mus musculus, UniProt Q9QXZ6); assay: Uptake assay for radiolabeled substrates, mouse Oatp1a1 expressing 293FT cells; type: in vitro ADME; design: expressed in transfected cells; host or cells: 293FT cells; conditions: for Ratio of uptake amount relative to the uptake into mock cells: 10‐min incubation
T1 sequence (Q9QXZ6 1-670): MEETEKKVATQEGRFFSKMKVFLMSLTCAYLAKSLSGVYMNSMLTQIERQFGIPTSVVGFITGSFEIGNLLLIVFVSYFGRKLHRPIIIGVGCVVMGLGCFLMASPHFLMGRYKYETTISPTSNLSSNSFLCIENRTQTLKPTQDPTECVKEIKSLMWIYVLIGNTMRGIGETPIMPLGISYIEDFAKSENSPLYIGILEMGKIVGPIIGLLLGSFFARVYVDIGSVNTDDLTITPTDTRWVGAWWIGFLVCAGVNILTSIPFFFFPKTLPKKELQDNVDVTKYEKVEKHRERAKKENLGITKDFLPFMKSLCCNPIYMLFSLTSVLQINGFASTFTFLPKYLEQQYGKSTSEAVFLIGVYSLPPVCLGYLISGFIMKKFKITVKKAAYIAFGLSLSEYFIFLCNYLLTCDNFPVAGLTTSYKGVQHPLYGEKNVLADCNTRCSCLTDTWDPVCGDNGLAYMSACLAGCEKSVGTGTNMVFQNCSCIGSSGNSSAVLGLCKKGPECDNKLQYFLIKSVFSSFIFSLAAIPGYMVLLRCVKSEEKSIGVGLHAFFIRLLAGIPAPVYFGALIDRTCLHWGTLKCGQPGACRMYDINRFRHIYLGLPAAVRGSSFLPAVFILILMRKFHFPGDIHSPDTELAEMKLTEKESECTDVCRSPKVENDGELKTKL
Procedure: (§1) 293FT cells were purchased from Thermo Fisher Scientific, Inc.. The cells were grown in Dulbecco's modified Eagle medium (supplemented with 4.5 g/L glucose and 2 mM L‐glutamine) at 37°C, 5% CO2, and 95% humidity. The cells were passaged 3 times per week by harvesting cells using trypsin and plating at a density of 1.0 × 10^4 cells/cm^2 in a 10 cm cell culture plate for maintenance culture. The 293FT cells were detached using trypsin and re‐seeded at a density of 2.5 × 10^4 cells/cm^2 in BioCoat™ Collagen I 6‐well plates (Corning Inc.) for transfection and then treated with 1.2 μg of plasmid vector and 3.2 μl of Lipofectamine™ 2000 Transfection Reagent (Thermo Fisher Scientific, Inc.) according to the manufacturer's instructions. After a 3‐h treatment, the transfection medium was replaced with a fresh cell culture medium and incubated at 37°C with 95% humidity and 5% CO2 until ready for the assay.
(§2) Transport experiments were conducted approximately 24 h post‐transfection. The experiments were initiated by aspirating culture medium and addition of pre‐warmed radiolabeled substrate solution (final 1.0% of acetonitrile or 0.9% of ethanol in phosphate‐buffered saline (PBS[−])) to each well. After a 10‐min incubation, cells were washed twice with 1 ml of ice‐cold PBS(−) and lysed with 700 μl of 1.0 M NaOH for 3 h or more at room temperature. The lysate was transferred to a 1.5‐ml tube, and neutralized with 350 μl of 2.0 M HCl and 350 μl of 2.0% sodium dodecyl sulfate (SDS) solution. From the lysate, 1.0 ml was transferred to a vial containing 10 ml of Emulsifier Scintillator Plus to measure the radioactivity in the LSC. The protein concentration of the cell lysate was also measured using a Pierce™ BCA Protein Assay Kit (Thermo Fisher Scientific, Inc.), which was used to normalize, according to the cell number, the radioactivity in the cell lysate extract. The protein assay was performed in duplicate. Each sample type was assayed in triplicate wells, and each run was performed twice. When the difference in mean uptake between OATP expressing cells and mock cells was more than 2 times, the OATP was judged to be involved in transportation of the substrate. […] Each sample type was assayed in triplicate wells.

rat Oatp1b2 = biological target: T2, rat Oatp1b2 (Rattus norvegicus, UniProt Q9QZX8); assay: Uptake assay for radiolabeled substrates, rat Oatp1b2 expressing 293FT cells; conditions: 10‐min incubation
T2 sequence (Q9QZX8 1-687): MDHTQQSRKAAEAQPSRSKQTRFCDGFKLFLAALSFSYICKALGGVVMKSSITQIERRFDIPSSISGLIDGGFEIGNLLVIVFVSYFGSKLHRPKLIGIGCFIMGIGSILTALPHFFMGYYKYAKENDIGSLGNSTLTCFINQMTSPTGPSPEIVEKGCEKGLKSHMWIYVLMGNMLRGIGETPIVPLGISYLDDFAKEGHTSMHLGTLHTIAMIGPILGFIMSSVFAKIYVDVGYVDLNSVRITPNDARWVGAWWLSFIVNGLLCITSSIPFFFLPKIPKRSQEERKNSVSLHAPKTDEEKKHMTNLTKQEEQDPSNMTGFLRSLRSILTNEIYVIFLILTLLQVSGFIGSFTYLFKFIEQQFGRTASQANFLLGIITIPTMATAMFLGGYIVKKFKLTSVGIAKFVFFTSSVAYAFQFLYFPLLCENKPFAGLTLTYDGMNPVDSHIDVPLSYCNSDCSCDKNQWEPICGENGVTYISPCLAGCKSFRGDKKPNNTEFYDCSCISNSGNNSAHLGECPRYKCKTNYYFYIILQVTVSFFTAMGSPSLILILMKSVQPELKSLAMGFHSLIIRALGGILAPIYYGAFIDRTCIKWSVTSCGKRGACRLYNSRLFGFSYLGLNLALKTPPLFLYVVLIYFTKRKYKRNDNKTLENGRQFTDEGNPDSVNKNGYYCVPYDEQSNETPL
Procedure: as §1, §2

mouse Oatp2b1 = biological target: T3, mouse Oatp2b1 (Mus musculus, UniProt Q8BXB6); assay: Uptake assay for radiolabeled substrates, mouse Oatp2b1 expressing 293FT cells; conditions: 10‐min incubation
T3 sequence (Q8BXB6 1-683): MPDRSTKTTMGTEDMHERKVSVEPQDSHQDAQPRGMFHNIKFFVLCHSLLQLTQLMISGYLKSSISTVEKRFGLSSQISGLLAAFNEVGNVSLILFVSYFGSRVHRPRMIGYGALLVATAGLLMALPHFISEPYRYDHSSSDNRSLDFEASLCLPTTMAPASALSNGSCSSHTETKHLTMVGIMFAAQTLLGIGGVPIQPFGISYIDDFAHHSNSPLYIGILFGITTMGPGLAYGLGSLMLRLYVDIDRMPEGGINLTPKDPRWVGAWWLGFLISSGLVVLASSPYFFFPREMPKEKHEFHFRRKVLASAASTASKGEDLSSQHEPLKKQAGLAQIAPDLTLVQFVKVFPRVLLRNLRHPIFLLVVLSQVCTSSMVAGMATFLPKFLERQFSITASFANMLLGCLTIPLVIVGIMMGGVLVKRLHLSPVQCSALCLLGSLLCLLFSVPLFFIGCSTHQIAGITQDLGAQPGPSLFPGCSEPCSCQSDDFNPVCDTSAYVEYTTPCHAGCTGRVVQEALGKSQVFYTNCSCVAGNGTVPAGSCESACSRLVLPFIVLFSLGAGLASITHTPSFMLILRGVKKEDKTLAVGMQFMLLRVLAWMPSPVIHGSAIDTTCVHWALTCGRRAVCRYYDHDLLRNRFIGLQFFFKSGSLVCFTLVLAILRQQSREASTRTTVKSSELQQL
Procedure: as §1, §2

| SMILES | Ratio of uptake amount relative to the uptake into mock cells (mouse Oatp1a1; Run_1) | Ratio of uptake amount relative to the uptake into mock cells (mouse Oatp1a1; Run_2) | Ratio of uptake amount relative to the uptake into mock cells (rat Oatp1b2; Run_1) | Ratio of uptake amount relative to the uptake into mock cells (rat Oatp1b2; Run_2) | Ratio of uptake amount relative to the uptake into mock cells (mouse Oatp2b1; Run_1) | Ratio of uptake amount relative to the uptake into mock cells (mouse Oatp2b1; Run_2) | Uptake, times higher than in mock cells (mouse Oatp1a1) [times] |
| --- | --- | --- | --- | --- | --- | --- | --- |
| C[C@]12CC[C@@H]3c4ccc(OS(=O)(=O)O)cc4CC[C@H]3[C@@H]1CCC2=O [E3S, Estrone 3‐sulfate] | 23.4 | 34.4 | 10.0 | 4.7 | 2.9 | 3.9 | – |
| Cn1c(C(F)(F)F)cc(=O)n(-c2cc(Oc3cccnc3OCC(=O)O)c(Cl)cc2F)c1=O [S‐3100‐CA] | 3.3 | 4.3 | 6.6 | 8.4 | 2.4 | 4.0 | – |
| C[C@]12CC[C@@H]3c4ccc(O)cc4CC[C@H]3[C@@H]1CC[C@@H]2O[C@@H]1O[C@H](C(=O)O)[C@@H](O)[C@H](O)[C@H]1O [E217βG, Estradiol 17β‐D‐glucuronide] | 84.9 | 62.2 | 27.4 | 43.2 | 4.1 | 2.0 | > 50 |

— PMC8496750, “Identification of the organic anion transporting polypeptides responsible for the hepatic uptake of the major metabolite of epyrifenacil, S‐3100‐CA, in mice” (Pharmacology Research & Perspectives, 2021)
